What all share (type): functional
Test [1] is described as follows: Antiinflammatory activity against in C57BL/6 mouse BMDC assessed as inhibition of LPS-stimulated IL12 production compound pre-incubated for 1 hr before LPS challenge by ELISA. A general note: In an ELISA, binding on a coated surface is turned into a signal by an enzyme label.
Test [2] is described as follows: Antiinflammatory activity against in C57BL/6 mouse BMDC assessed as inhibition of LPS-stimulated IL6 production compound pre-incubated for 1 hr before LPS challenge by ELISA.
The nature of test [3]: Antiinflammatory activity against in C57BL/6 mouse BMDC assessed as inhibition of LPS-stimulated TNFalpha production compound pre-incubated for 1 hr before LPS challenge by ELISA.

Usually IC50 stands for the concentration that gives 50% inhibition. Consider `C=C(C)[C@@H]1CC(=O)CC2=C(C1)[C@@H]1C(=O)O[C@@H]3CC(C)=C(C2=O)[C@H]13` [YONAROLIDE], for which the IC50 in test [1], in test [2] and in test [3] was greater than 100 µM in each case.
In the case of `C=C(C)[C@@H]1CC(=O)CC2=C(C1)[C@]1(O)C(=O)O[C@@H]3C[C@](C)(O)[C@H](C2=O)[C@@H]31`, the IC50 in test [1], in test [2] and in test [3] was greater than 100 µM throughout.
With `C=C(C)[C@@H]1CC(=O)[C@H]2[C@H](C1)[C@@H]1C(=O)O[C@@H]3C[C@@]4(C)O[C@H]2C(=O)[C@@H]4[C@H]13` [INELEGANOLIDE], the IC50 in test [1], in test [2] and in test [3] was greater than 100 µM each time.
For `C=C(C)[C@H]1C/C=C(\C(=O)OC)CC(=O)C[C@@]2(C)CC(=O)[C@@H](CC(=O)C1)O2` [NORCEMBRENE 5], the half-inhibitory concentration (IC50) in test [1], in test [2] and in test [3] was greater than 100 µM throughout.
Regarding `C=C(C)[C@H]1CCC2=C[C@@H](C[C@@]3(C)CC(=O)[C@H](CC(=O)C1)O3)OC2=O`, the IC50 in test [1], in test [2] and in test [3] was greater than 100 µM in each case.
In the case of `C=C(C)[C@@H]1CC(=O)C[C@@H]2O[C@](C)(CC2=O)C[C@@H]2C=C(C(=O)O2)[C@H](OC)C1`, the IC50 in test [1] was 5.3 µM; in test [2] it was 13.1 µM; in test [3], greater than 100 µM.
The matching figures for `C[S+]([O-])c1ccc(-c2nc(-c3ccc(F)cc3)c(-c3ccncc3)[nH]2)cc1` (centres undefined) [SB-203580]: 5.67 µM, 3.56 µM and 7.37 µM.
On to `C=C(C)[C@@H]1CC(=O)CC2=C(C1)[C@@H]1C(=O)O[C@@H]3C[C@](C)(O)[C@H](C2=O)[C@H]13` [SCABROLIDE A], for which the half-maximal inhibitory concentration (IC50) in test [1] is 23.5 µM; in test [2], 69.9 µM; in test [3] it was greater than 100 µM.

The record behind these values is ChEMBL document CHEMBL2331247, “Anti-inflammatory norditerpenoids from the soft coral Sinularia maxima” (Bioorg Med Chem Lett, 2013).
